In this assay the test system is L1210 leukemia ip in BDF1 mice, survival T/C. Nature of the assay: NCI In Vivo Anticancer Drug Screen. Data for tumor model L1210 Leukemia (intraperitoneal) in B6D2F1 (BDF1) mice. The note with it: higher = longer survival. In a few lines: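 Ratio derived from survival: compound-dosed mice over vehicle-dosed mice, all bearing a transplantable tumor.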
[1] abbreviates: endpoint: mean survival time, dose: 25.0 mg/kg/injection, schedule: Q01DX009 (ip), vehicle: Klucel (hydroxypropylcellulose) (HPC).
[2] abbreviates: endpoint: mean survival time, dose: 50.0 mg/kg/injection, schedule: Q01DX001 (ip), vehicle: saline.
[3] abbreviates: endpoint: mean survival time, dose: 100.0 mg/kg/injection, schedule: Q01DX001 (ip), vehicle: saline.
The mark [4] stands for this setting: endpoint: mean survival time, dose: 200.0 mg/kg/injection, schedule: Q01DX001 (ip), vehicle: saline.
Setting [5] is: endpoint: mean survival time, dose: 400.0 mg/kg/injection, schedule: Q01DX001 (ip), vehicle: saline.
[6] abbreviates: endpoint: mean survival time, dose: 100.0 mg/kg/injection, schedule: Q01DX001 (ip), vehicle: carboxymethylcellulose (CMC).
Where [7] appears, read: endpoint: mean survival time, dose: 200.0 mg/kg/injection, schedule: Q01DX001 (ip), vehicle: carboxymethylcellulose (CMC).
Setting [8] is: endpoint: mean survival time, dose: 400.0 mg/kg/injection, schedule: Q01DX001 (ip), vehicle: carboxymethylcellulose (CMC).
The mark [9] stands for this setting: endpoint: mean survival time, dose: 100.0 mg/kg/injection, schedule: Q01DX009 (ip), vehicle: saline with Tween-80.

“And” between values parts separate entries of the source, which are not always exact repeats. Equal values may be shown once. Toxic doses and inconclusive results are not listed.

For the compound `NCCc1ccc(O)c(O)c1`, the T/C is, setting by setting: (endpoint: mean survival time, dose: 6.25 mg/kg/injection, schedule: Q03HX024 (ip), vehicle: saline) 101 % of control; (endpoint: mean survival time, dose: 12.5 mg/kg/injection, schedule: Q03HX004 (ip), vehicle: saline) 113 % of control; (endpoint: mean survival time, dose: 12.5 mg/kg/injection, schedule: Q03HX024 (ip), vehicle: saline) 87 % of control; (endpoint: mean survival time, dose: 25.0 mg/kg/injection, schedule: Q01DX001 (ip), vehicle: saline) 104 % of control; under setting [1], 105 % of control; (endpoint: mean survival time, dose: 25.0 mg/kg/injection, schedule: Q03HX004 (ip), vehicle: saline) 113 % of control. The T/C by setting is: (endpoint: mean survival time, dose: 25.0 mg/kg/injection, schedule: Q03HX024 (ip), vehicle: saline) 106 % of control; (endpoint: mean survival time, dose: 25.0 mg/kg/injection, schedule: Q04DX003 (ip), vehicle: saline) 94 % of control; under setting [2], 100 % of control; (endpoint: mean survival time, dose: 50.0 mg/kg/injection, schedule: Q01DX009 (ip), vehicle: Klucel (hydroxypropylcellulose) (HPC)) 114 % of control; (endpoint: mean survival time, dose: 50.0 mg/kg/injection, schedule: Q01DX009 (ip), vehicle: saline) 118 % of control and 119 % of control; (endpoint: mean survival time, dose: 50.0 mg/kg/injection, schedule: Q03HX004 (ip), vehicle: saline) 124 % of control. Further, the T/C was 115 % of control (endpoint: mean survival time, dose: 50.0 mg/kg/injection, schedule: Q03HX024 (ip), vehicle: saline); 94 % of control (endpoint: mean survival time, dose: 50.0 mg/kg/injection, schedule: Q04DX003 (ip), vehicle: saline); 108 % of control under setting [3]; 115 % of control (endpoint: mean survival time, dose: 100.0 mg/kg/injection, schedule: Q03HX024 (ip), vehicle: saline); 97 % of control (endpoint: mean survival time, dose: 100.0 mg/kg/injection, schedule: Q04DX003 (ip), vehicle: saline); 104 % of control (endpoint: mean survival time, dose: 150.0 mg/kg/injection, schedule: Q01DX009 (ip), vehicle: saline). Moreover, the T/C runs as follows: under setting [4], 99 % of control; (endpoint: mean survival time, dose: 200.0 mg/kg/injection, schedule: Q04DX003 (ip), vehicle: saline) 101 % of control; under setting [5], 115 % of control; (endpoint: mean survival time, dose: 400.0 mg/kg/injection, schedule: Q01DX009 (ip), vehicle: Klucel (hydroxypropylcellulose) (HPC)) 152 % of control; (endpoint: mean survival time, dose: 400.0 mg/kg/injection, schedule: Q01DX009 (ip), vehicle: saline) 123 % of control; (endpoint: mean survival time, dose: 400.0 mg/kg/injection, schedule: Q04DX003 (ip), vehicle: saline) 94 % of control. For the same compound, the T/C was 103 % of control (endpoint: mean survival time, dose: 600.0 mg/kg/injection, schedule: Q01DX009 (ip), vehicle: saline); 122 % of control (endpoint: mean survival time, dose: 800.0 mg/kg/injection, schedule: Q01DX009 (ip), vehicle: saline); 108 % of control (endpoint: mean survival time, dose: 800.0 mg/kg/injection, schedule: Q04HX003 (ip), vehicle: saline); 104 % of control (endpoint: mean survival time, dose: 1600.0 mg/kg/injection, schedule: Q04HX003 (ip), vehicle: saline); 92 % of control (endpoint: median survival time, dose: 20.0 mg/kg/injection, schedule: Q04HX036 (ip), vehicle: saline); 98 % of control (endpoint: median survival time, dose: 40.0 mg/kg/injection, schedule: Q01DX009 (sc), vehicle: saline). In addition, the T/C is 114 % of control (endpoint: median survival time, dose: 40.0 mg/kg/injection, schedule: Q04HX020 (ip), vehicle: saline); 106 % of control (endpoint: median survival time, dose: 40.0 mg/kg/injection, schedule: Q04HX036 (ip), vehicle: saline); 104 % of control (endpoint: median survival time, dose: 40.0 mg/kg/injection, schedule: Q11DX017 (ip), vehicle: saline); 114 % of control (endpoint: median survival time, dose: 40.0 mg/kg/injection, schedule: Q12HX018 (ip), vehicle: saline); 118 % of control (endpoint: median survival time, dose: 80.0 mg/kg/injection, schedule: Q01DX009 (ip), vehicle: saline); 97 % of control (endpoint: median survival time, dose: 80.0 mg/kg/injection, schedule: Q01DX009 (oral), vehicle: saline). For the same compound, the T/C reads like this: (endpoint: median survival time, dose: 80.0 mg/kg/injection, schedule: Q01DX009 (sc), vehicle: saline) 104 % of control; (endpoint: median survival time, dose: 80.0 mg/kg/injection, schedule: Q02DX005 (ip), vehicle: saline) 111 % of control; (endpoint: median survival time, dose: 80.0 mg/kg/injection, schedule: Q04HX020 (ip), vehicle: saline) 123 % of control; (endpoint: median survival time, dose: 80.0 mg/kg/injection, schedule: Q04HX036 (ip), vehicle: saline) 122 % of control; (endpoint: median survival time, dose: 80.0 mg/kg/injection, schedule: Q11DX017 (ip), vehicle: saline) 120 % of control; (endpoint: median survival time, dose: 80.0 mg/kg/injection, schedule: Q12HX010 (ip), vehicle: saline) 121 % of control. The T/C reads like this: (endpoint: median survival time, dose: 160.0 mg/kg/injection, schedule: Q01DX009 (oral), vehicle: saline) 104 % of control; (endpoint: median survival time, dose: 160.0 mg/kg/injection, schedule: Q01DX009 (sc), vehicle: saline) 96 % of control; (endpoint: median survival time, dose: 160.0 mg/kg/injection, schedule: Q04HX036 (ip), vehicle: saline) 108 % of control; (endpoint: median survival time, dose: 320.0 mg/kg/injection, schedule: Q01DX009 (oral), vehicle: saline) 105 % of control; (endpoint: median survival time, dose: 320.0 mg/kg/injection, schedule: Q01DX009 (sc), vehicle: saline) 103 % of control; (endpoint: median survival time, dose: 320.0 mg/kg/injection, schedule: Q02DX005 (ip), vehicle: saline) 122 % of control. Moreover, the T/C runs as follows: (endpoint: median survival time, dose: 640.0 mg/kg/injection, schedule: Q01DX009 (oral), vehicle: saline) 106 % of control; (endpoint: median survival time, dose: 640.0 mg/kg/injection, schedule: Q01DX009 (sc), vehicle: saline) 103 % of control; (endpoint: median survival time, dose: 640.0 mg/kg/injection, schedule: Q02DX005 (ip), vehicle: saline) 124 % of control.
With `NC(CSS(=O)(=O)O)=NCc1ccsc1`, the T/C (endpoint: mean survival time, dose: 6.25 mg/kg/injection, schedule: Q01DX009 (ip), vehicle: Klucel (hydroxypropylcellulose) (HPC)) was 96 % of control; the T/C (endpoint: mean survival time, dose: 12.5 mg/kg/injection, schedule: Q01DX009 (ip), vehicle: Klucel (hydroxypropylcellulose) (HPC)) was 104 % of control; the T/C (endpoint: mean survival time, dose: 12.5 mg/kg/injection, schedule: Q04DX002 (ip), vehicle: Klucel (hydroxypropylcellulose) (HPC)) is 100 % of control; the T/C under setting [1] was 101 % of control; the T/C (endpoint: mean survival time, dose: 25.0 mg/kg/injection, schedule: Q04DX002 (ip), vehicle: Klucel (hydroxypropylcellulose) (HPC)) was 95 % of control.
As for `O=COC1CC2CC1c1ccccc12` (stereo not drawn), the T/C under setting [2] was 105 % of control, the T/C under setting [3] was 105 % of control, the T/C under setting [4] was 105 % of control and the T/C under setting [5] was 105 % of control.
Consider `CN(C)Cc1c(C(O)(c2ccccc2)c2ccccc2)cc2ccccc2c1Cl`, for which the T/C reads like this: (endpoint: mean survival time, dose: 50.0 mg/kg/injection, schedule: Q01DX001 (ip), vehicle: carboxymethylcellulose (CMC)) 94 % of control; under setting [6], 94 % of control; under setting [7], 102 % of control; under setting [8], 96 % of control.
In the case of `CC(=O)Nc1ccc2c(c1)C(S)c1ccccc1-2` (stereo not drawn), the T/C is 112 % of control under setting [6], 114 % of control under setting [7] and 101 % of control under setting [8].
For the compound `CCC1N=C(N)N=C(N)N1c1ccc(Cl)cc1` (stereo not drawn), the T/C is 100 % of control (endpoint: mean survival time, dose: 75.0 mg/kg/injection, schedule: Q01DX001 (ip), vehicle: saline) and 98 % of control (endpoint: mean survival time, dose: 150.0 mg/kg/injection, schedule: Q01DX001 (ip), vehicle: saline).
With `Cc1ccc(-n2c(=S)[nH]c3ccccc3c2=O)cc1`, the T/C reads like this: (endpoint: mean survival time, dose: 25.0 mg/kg/injection, schedule: Q01DX009 (ip), vehicle: saline with Tween-80) 92 % of control; (endpoint: mean survival time, dose: 50.0 mg/kg/injection, schedule: Q01DX009 (ip), vehicle: saline with Tween-80) 90 % of control; under setting [9], 87 % of control.
In the case of `CCC(=O)Nc1cccc(OC(=O)NCCCl)c1`, the T/C is, setting by setting: under setting [9], 96 % of control; (endpoint: mean survival time, dose: 200.0 mg/kg/injection, schedule: Q01DX009 (ip), vehicle: saline with Tween-80) 87 % of control; (endpoint: mean survival time, dose: 400.0 mg/kg/injection, schedule: Q01DX009 (ip), vehicle: saline with Tween-80) 86 % of control.
Turning to `CC(CO)CCCC(C)C1C(O)CC2C3CCC4CC(O)CCC4(C)C3CCC21C` (stereo not drawn), the T/C (endpoint: mean survival time, dose: 100.0 mg/kg/injection, schedule: Q01DX001 (ip), vehicle: Klucel (hydroxypropylcellulose) (HPC)) was 88 % of control; the T/C (endpoint: mean survival time, dose: 200.0 mg/kg/injection, schedule: Q01DX001 (ip), vehicle: Klucel (hydroxypropylcellulose) (HPC)) is 88 % of control; the T/C (endpoint: mean survival time, dose: 400.0 mg/kg/injection, schedule: Q01DX001 (ip), vehicle: Klucel (hydroxypropylcellulose) (HPC)) is 91 % of control.

The values are drawn from PubChem BioAssay AID248 (DTP/NCI, 2004).
